Data on 15 compounds can be found in ChEMBL document CHEMBL1201862, “PubChem BioAssay data set” (2004).

Test [1] can be described thus: potency of ADAM10 substrate cleavage blockers – biochemical, QFRET, dose response (AID 743254).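 Also: ADAM10 enzyme with the DM2 quenched FRET peptide as substrate; EDANS fluorescence gain as the protease cuts the substrate; inhibitor potency against ADAM10 proteolytic activity.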
In test [2] the target is Disintegrin and metalloproteinase domain-containing protein 17 (Homo sapiens, UniProt P78536). Nature of the test: inhibition of ADAM17 substrate cleavage – biochemical, quenched FRET substrate, counter-screen for ADAM10 exosite inhibitor project, dose response (AID 743253). (The purpose of a counterscreen is to sort out artefacts and off-target activity.)
The target of test [3] is Potassium channel subfamily K member 9 (Homo sapiens, UniProt Q9NPC2). The test can be described thus: KCNK9 flux blockade, concentration-response – cell-based, FluxOR thallium flux, selectivity assay for TASK1 inhibitor project, SAR follow-up (AID 652211).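 Also: potency is for inhibitors of the channel.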 The class given is functional.
The target in test [4] is Potassium channel subfamily K member 3 (Homo sapiens, UniProt O14649). Nature of the test: inhibition of human KCNK3 channel flux – CHO cells, FluxOR thallium flux, SAR follow-up (AID 652212). Type of test: functional.
For test [5], the target named is T1, Heat shock factor protein 1 (Mus musculus, UniProt P38532).
T1 sequence (P38532 whole entry): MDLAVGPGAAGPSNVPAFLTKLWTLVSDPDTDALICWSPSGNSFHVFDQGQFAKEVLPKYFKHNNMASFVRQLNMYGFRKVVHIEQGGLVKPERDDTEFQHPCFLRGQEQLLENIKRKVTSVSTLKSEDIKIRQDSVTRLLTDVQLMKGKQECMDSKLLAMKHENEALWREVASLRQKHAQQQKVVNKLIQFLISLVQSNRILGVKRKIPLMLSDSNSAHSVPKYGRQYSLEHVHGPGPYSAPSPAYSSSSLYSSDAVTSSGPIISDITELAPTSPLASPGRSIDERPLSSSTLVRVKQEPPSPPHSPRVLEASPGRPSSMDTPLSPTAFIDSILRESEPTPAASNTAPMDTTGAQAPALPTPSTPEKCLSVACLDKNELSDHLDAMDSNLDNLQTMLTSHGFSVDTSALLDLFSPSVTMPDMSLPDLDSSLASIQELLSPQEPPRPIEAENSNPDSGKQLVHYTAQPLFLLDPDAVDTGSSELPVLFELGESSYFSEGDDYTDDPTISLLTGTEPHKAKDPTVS
Nature of the test: decrease of HSF1-responsive luciferase luminescence – cell-based, NIH3T3, dose retest, confirmation (AID 2382).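 Also: NIH3T3 fibroblasts with HSF1-driven luciferase reporter stressed by proteasome inhibitor MG132; luminescence from HSF1-driven luciferase expression after 8 hours of MG132 stress.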 The class given is functional.

Test [6] has as its target Major prion protein (Homo sapiens, UniProt P04156). The class given is functional, cell-based.
Test [7] is described as follows: cells.
Test [8] addresses NAD-dependent protein deacylase sirtuin-5, mitochondrial (Homo sapiens, UniProt Q9NXA8). The test can be described thus: sirtuin-5 deacylation blockers, concentration series – biochemical, fluorescence imaging, cherry-pick, set 5, dose response (AID 720591).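 Also: desuccinylation of succinyl peptide AMC substrate read as fluorescence after trypsin release; potency of inhibitors that lower fluorescence and may act on trypsin instead.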
Test [9] can be described thus: cells. Type of test: functional, cell-based.
The target in test [10] is T2, Nuclear receptor subfamily 0 group B member 1 (Homo sapiens, UniProt P51843).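 Also: HEK293T cells transfected with SF-1 and DAX-1 plus StAR promoter luciferase reporter.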
T2 sequence (P51843 whole entry): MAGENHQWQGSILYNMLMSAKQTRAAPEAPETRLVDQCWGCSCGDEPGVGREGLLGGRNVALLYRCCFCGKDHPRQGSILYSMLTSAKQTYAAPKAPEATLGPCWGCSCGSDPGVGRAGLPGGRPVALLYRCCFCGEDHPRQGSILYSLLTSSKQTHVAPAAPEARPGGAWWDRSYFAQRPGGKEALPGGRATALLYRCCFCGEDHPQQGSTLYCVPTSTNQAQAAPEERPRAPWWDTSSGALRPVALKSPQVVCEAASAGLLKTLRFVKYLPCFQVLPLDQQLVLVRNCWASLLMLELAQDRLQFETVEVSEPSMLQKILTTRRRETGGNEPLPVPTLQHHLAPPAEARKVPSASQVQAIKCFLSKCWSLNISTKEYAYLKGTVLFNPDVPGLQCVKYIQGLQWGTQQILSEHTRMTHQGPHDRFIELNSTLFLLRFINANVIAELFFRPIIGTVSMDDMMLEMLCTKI
Type of test: functional, cell-based.

Test [11] in a line: Luminescence Cell-Based Dose Confirmation HTS to Identify Activators of 5'UTR Stem-Loop Driven Alpha-Synuclein mRNA Translation in H4 Neuroglioblastoma Cells. [Related pubchem assays: 1829 (Project Summary), 1814 (Primary HTS)]. Type of test: functional.
Test [12] in a line: Luminescence Cell-Based Dose Response HTS to Identify Activators of Luciferase Translation or Activity in H4 […] Cells. [Related pubchem assays: 1829 (Project Summary), 1814 (Primary HTS)]. The class given is functional.
For test [13], the system named is H4. Nature of the test: Luminescence Cell-Based Dose Response HTS to Identify Activators of 5'UTR Stem-Loop Driven Prion Protein mRNA Translation in H4 Neuroglioblastoma Cells. [Related pubchem assays: 1829 (Project Summary), 1814 (Primary HTS)]. Type of test: functional. The settings on record: Homo sapiens.
Test [14] has as its target T1, Heat shock factor protein 1. Nature of the test: enhancement of HSF1-driven luciferase signal – cell-based, NIH3T3, luminescence, dose retest, confirmation (AID 435004).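 Also: stress induced by proteasome inhibitor MG132 added 30 min after compound; luciferase reporter driven by HSF1 response element in NIH3T3 cells; actives raise luminescence as potentiators of the MG132 stress response.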 Type of test: functional.
The target of test [15] is T3, Oxysterols receptor LXR-beta (Homo sapiens, UniProt P55055).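 Also: agonist activity at LXR measured by a cell-based luminescence readout across a dose range, run as a counterscreen for daf-12 agonists; HEK293 cells with Gal4-LXR fusion and GAL4-driven luciferase reporter; potency for activation of Gal4-LXR reporter so compounds are agonists.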
T3 sequence (P55055 whole entry): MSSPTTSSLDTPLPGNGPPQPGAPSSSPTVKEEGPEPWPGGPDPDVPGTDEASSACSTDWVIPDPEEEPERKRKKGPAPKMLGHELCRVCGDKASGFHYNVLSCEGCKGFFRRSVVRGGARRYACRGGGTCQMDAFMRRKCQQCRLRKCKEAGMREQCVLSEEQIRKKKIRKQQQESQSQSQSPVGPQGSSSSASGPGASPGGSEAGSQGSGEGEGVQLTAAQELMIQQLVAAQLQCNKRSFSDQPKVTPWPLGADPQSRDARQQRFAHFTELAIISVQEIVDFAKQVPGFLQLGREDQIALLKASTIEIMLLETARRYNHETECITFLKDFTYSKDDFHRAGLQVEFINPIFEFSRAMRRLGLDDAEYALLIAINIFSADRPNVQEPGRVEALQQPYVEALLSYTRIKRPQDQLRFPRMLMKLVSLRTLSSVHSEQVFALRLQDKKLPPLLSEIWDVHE
The class given is functional, cell-based.

The target of test [16] is Fatty acid synthase (Homo sapiens, UniProt P49327). The test can be described thus: inhibition of human FAS-TE enzyme activity – biochemical, endpoint fluorescence intensity, powder samples, SAR follow-up (AID 652164). The class given is functional.
Test [17] deals with T4, Rac GTPase-activating protein 1 (Homo sapiens, UniProt Q9H0H5).
T4 sequence (Q9H0H5 whole entry): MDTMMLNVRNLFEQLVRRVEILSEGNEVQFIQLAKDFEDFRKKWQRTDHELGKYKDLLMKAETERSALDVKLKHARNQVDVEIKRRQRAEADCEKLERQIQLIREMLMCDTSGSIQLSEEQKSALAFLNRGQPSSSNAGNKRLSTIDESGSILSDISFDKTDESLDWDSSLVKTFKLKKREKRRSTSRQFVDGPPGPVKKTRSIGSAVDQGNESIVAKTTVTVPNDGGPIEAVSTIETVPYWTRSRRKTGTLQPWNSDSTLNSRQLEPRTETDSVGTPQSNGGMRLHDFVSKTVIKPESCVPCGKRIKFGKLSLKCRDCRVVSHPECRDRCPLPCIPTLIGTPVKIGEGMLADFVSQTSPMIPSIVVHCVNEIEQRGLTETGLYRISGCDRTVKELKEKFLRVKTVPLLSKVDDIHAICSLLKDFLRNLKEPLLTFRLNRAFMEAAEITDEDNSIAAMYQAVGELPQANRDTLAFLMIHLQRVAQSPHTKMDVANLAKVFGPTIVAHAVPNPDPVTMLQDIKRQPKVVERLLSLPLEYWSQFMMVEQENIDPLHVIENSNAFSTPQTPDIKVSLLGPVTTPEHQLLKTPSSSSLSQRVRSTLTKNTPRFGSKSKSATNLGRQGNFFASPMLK
The test can be described thus: blockers of MgcRacGAP-driven Rac1 GTP hydrolysis – biochemical, ADP Hunter fluorescence, primary and confirmatory, confirmation (AID 624330). The class given is functional.

A short description of test [18]: viability loss in LCL cells – cell-based, plate reader, dry powder, set 2, cytotoxicity control, dose response (AID 624367). Type of test: functional.
Test [19] concerns the target Peroxisome proliferator-activated receptor gamma/Nuclear receptor coactivator 1 (Homo sapiens, UniProt P37231). The test can be described thus: TR-FRET dose response biochemical High Throughput Screening assay for agonists of the steroid receptor coactivator 1 (SRC-1) recruitment by the peroxisome proliferator-activated receptor gamma (PPAR gamma): non-selective agonists. [Related pubchem assays (depositor defined):AID1300, AID1808, AID504735, AID631]. Type of test: protein assay.

The target of test [20] is Peroxisome proliferator-activated receptor gamma/Nuclear receptor coactivator 3 (Homo sapiens, UniProt P37231). Nature of the test: TR-FRET dose response biochemical High Throughput Screening assay for agonists of the steroid receptor coactivator 3 (SRC-3) recruitment by the peroxisome proliferator-activated receptor gamma (PPAR gamma): non-selective agonists. [Related pubchem assays: 1301 (Confirmation screen.), 1048 (Primary screen.)]. The class given is functional. (In general: TR-FRET usually uses a lanthanide donor and a delayed reading to cut background.)

Test [21] concerns the target Peroxisome proliferator-activated receptor gamma/Nuclear receptor coactivator 2 (Homo sapiens, UniProt P37231). Nature of the test: TR-FRET dose response biochemical High Throughput Screening assay for agonists of the steroid receptor coactivator 2 (SRC-2) recruitment by the peroxisome proliferator-activated receptor gamma (PPAR gamma): non-selective agonists. [Related pubchem assays: 1297, 1032 ]. Type of test: functional.

Each structure is given as a SMILES string. Activity calls are given as the source filed them.

Take `CC1(Cc2ccc(C(F)(F)F)o2)C(=O)Nc2ccc(-c3cccc(C(F)(F)F)c3)cc21` (stereo not given): the IC50 (as a rule, the concentration that inhibits the measured activity by half) in test [1] was 11.3 µM (inactive); in test [2], > 69.6 µM (inactive).

Regarding `CCOc1ccccc1NC(=O)c1cccc(NC(=O)C(C)(C)C)c1`, the IC50 in test [3] is 30.5 µM (active); in [4], 1.32 µM (active).

`COc1nc(-c2ccccc2)c2cc(Br)ccc2n1`: the EC50 (in general, the concentration giving half of the maximal effect) in [5] is reported as > 195 µM (not active). Moreover, the results for the concentration for half-maximal inhibition (IC50) in test [6] and in test [7] were 5.53 µM (active) and > 138 µM (inactive), respectively.

For `CC(C)(C)c1ccc(S(=O)(=O)NC(=O)C2(C)CCN2C(=O)C2CCCCC2)cc1` (stereo not given), in [8], the AC50 (as a rule, the concentration at which the activity in the assay is half-maximal) is > 30 µM (inactive).

In the case of `Cc1noc(C)c1-c1ccc(C(=O)Nc2ccccc2)c2occc12`, the figures for the IC50 in test [9] and in test [10] were > 67.5 µM (inactive) and > 2.5 µM (active), respectively.

As to `CCc1ccc(-c2cn(C3CCCCC3)c(S)n2)cc1`, the concentration giving a half-maximal response (EC50) was 67.1 µM (active) in [11], > 120 µM (not active) in test [12] and > 60 µM (not active) in test [13]. For the same compound, in test [1], the IC50 is > 69.5 µM (inactive).

As to `Cc1cc(NC(=O)CSc2nc3c(cc2C#N)CCC3)no1`, the half-maximal effective concentration (EC50) in [14] is 0.83 µM (active); in [15] it was > 67.6 µM (inactive).

Turning to `CN(C)S(=O)(=O)c1ccc(-c2csc(NC(=O)C3CCCC3)n2)cc1`, in test [16], the IC50 was 1.55 µM (active).

On to `CCc1ccc(-c2cn(C3CCCCC3)c(=S)[nH]2)cc1`, for which, in test [2], the IC50 was > 69.5 µM (inactive).

As for `Nc1ccc2c(c1)Cc1cc(N)c(Cl)cc1-2`, the IC50 in test [17] is 8.46 µM (active). Also, the EC50 in test [15] is > 67.4 µM (inactive).

Take `COc1ccc2oc(C(=O)NCC3CCCO3)c(C)c2c1` (stereo not given): the IC50 in test [9] and in [10] was > 67.6 µM (inactive) in each case.

For `CN(C)S(=O)(=O)c1ccc(-c2csc(NC(=O)C3CC3)n2)cc1`, the half-maximal inhibitory concentration (IC50) in [16] is 1.23 µM (active).

For the compound `CCc1ccccc1-n1c(SCC(=O)NC)nnc1-c1ccco1`, in test [8], the AC50 was > 30 µM (inactive).

In test [18], `CN1C(=O)c2cc(NC(=O)c3ccc(C(F)(F)F)cc3)ccc2OC[C@H]2O[C@@H](CC(=O)NC3Cc4ccccc4C3)CC[C@H]21` displayed an AbsAC35 of 40.05 µM.

Take `C#CCn1/c(=N/C(=O)c2ccc(Br)s2)sc2cccc(OC)c21`: the figures for the EC50 in [19], in [20] and in [21] were 10.3 µM (inactive), 18.1 µM (not active) and 10.6 µM (not active), respectively. The figures for the IC50 in test [6] and in test [7] were 2.6 µM (active) and 48.6 µM (inactive), respectively.
